From patent US20240316055A1, “METHODS FOR TREATING LEIGH SYNDROME” (DBCC Research, LLC, priority 2023, published 2024)

Columns and labels:
ECHS1 knockdown larvae = assay: Fly larva experiment: buoyancy (float/sink); format: in vivo, Drosophila; conditions: multiple doses fed to larvae; untreated ECHS1 knockdown larvae 30% sank
From the text: To determine whether the Drosophila larvae experiment would be appropriate for further evaluation of compounds, the phenotype induced by ECHSI RNAi was identified. […] It was noted that when extracted from food and placed in 1X PBS, ECHS1 knockdown larvae were buoyant and sank only ˜30% of the time, while age-matched control larvae always sank at 100% frequency.
To test the ability of drug compounds to rescue these two ECHS1 knockdown phenotypes, the larvae were fed with fly food with various concentrations of 10 candidate drugs and first measured for larval size. During the 6 days prior to collection and phenotyping, larvae were raised in the drug food and exposed to drug continuously throughout development. […] Independently, losmapimod, talmapimod, ralimetinib, and neflamapimod were selected at multiple doses and fed to larvae and the population-wide float/sink proportions were assayed. In contrast to untreated ECHS1 knockdown larvae, where 30% sank, treatment with drug compounds nearly doubled the sinking proportions to 60%. Considering the effect of ECHSI on buoyancy in light of its enzymatic function catalyzing the second step of mitochondrial fatty acid beta-oxidation, decreased ECHS1 activity was expected to increase levels of non-metabolized lipid which would increase buoyancy. Thus, compounds were identified that suppressed both quantitative and nominal phenotypes, one of which appears to be directly relevant to the enzymatic function of ECHS1.

[1] = tested on: ECHS1 patient-derived fibroblasts; assay: Mitochondrial respiration assay (Seahorse); format: cell-based; conditions: 48 hours; for respiration: glucose or galactose conditions, 1, 5 or 10 μM
From the text: To assess the mechanism of action of hit compounds from the screens of previous Examples, which were based on rescue of viability after metabolic challenge, Seahorse assay was used to measure mitochondrial function in response to treatment at multiple concentrations. The Seahorse assay measures the following parameters: oxygen consumption; basal respiration rate; ATP-linked respiration; maximal respiration; reserve capacity; and ATP production rate. At baseline (no treatment), the ECHS1 patient-derived fibroblasts had lower respiration rates than the control fibroblasts in glucose culturing conditions (20% reduction) and in galactose culturing conditions (30% reduction).
ECHS1 patient-derived fibroblasts and age-matched and sex-matched control fibroblasts were initially grown in standard media (DMEM+2 mM glutamine+1 mM pyruvate) containing 10 mM glucose as the energy source. Cells were seeded into specialized 96-well plates at a density of 10,000 cells per well. One day after plating, cells were treated with the test compounds at the concentrations of 0, 1, 5, or 10 μM. Half of the samples were cultured in 10 mM glucose media in addition to the test compounds. The remaining half of the sample were cultured in 10 mM galactose media, which is a metabolic challenge, in addition to the test compound. Test compounds were incubated with cells for 48 hours. According to the standard Seahorse protocol, the following stressors were added to cells in sequential order: 2 μM oligomycin; 5 μM carbonyl cyanide-4-(trifluoromethoxy)phenylhydrazone (FCCP); 9 μM FCCP; 2 μM rotenone and 2 μM antimycin A. Data were normalized to cell number per well using a Hoechst stain for cell nuclei. Two rounds of experiments were conducted. The results were consistent between the two rounds.

ECHS1 Fibroblast cells = assay: Galactose potency screen (cell viability, DAPI nuclei count); format: cell-based; conditions: galactose potency screen, FIG. 2
Method: Galactose Screen: Compound library plates were obtained from Prestwick/Selleck and SPECS (7,591 compounds total, 27 compounds/plate/concentration at 1 μM and 10 μM, 384-well plates). ECHS1 Fibroblast cells were harvested at 95% confluent with trypsin and suspended in Dulbecco's Modified Eagle Medium (DMEM)+10% Fetal Bovine Serum (FBS). The suspension was centrifuged at 200x g for 5 min. The suspension was discarded and the pellet was resuspended in the 5.5 mM galactose medium (DMEM+10% FBS+5.5 mM galactose) and seeded at 750 cells/well (50 μL) into the compound wells (1 μM and 10 μM). For the positive control experiment, the cells were suspended in 5.5 mM galactose medium+5.5 mM glucose+0.01% DMSO and seeded at 750 cells/well (50 μL) into the blank wells. For the negative control experiment, the cells were suspended in the 5.5 mM galactose medium+0.01% DMSO and seeded at 750 cells/well (50 μL) into the blank wells. The seeded plates were incubated at 37° C. for 96 hours, then 15 μL/well of 16% paraformaldehyde solution was added to the plates and allowed to sit for 15 min to fix the cells. The plates were then washed 3x with 50 μL/well of phosphate-buffered saline (PBS). The cells were stained with […] of a solution of 4,6-diamidino-2-phenylindole dilactate (DAPI, Invitrogen) and left at room temperature for 1 hr. The plates were then washed 3x with 50 μL/well of PBS prior to imaging. Agilent BioTek EL406 Microplate Washer Dispenser was used for the cell fixation and staining protocol. The plates were imaged using GE InCell2200 Cell Analyzer using PerkinElmer Columbus software quantification protocol. The data was analyzed using Genedata, Vortex, and Abase software. A Z-score value of >2 was used for the Prestwick/Selleck compound library and >3 for the SPECS library (based on the negative control population) to determine hit selection.
ECHS1 Fibroblast cells were harvested at 70-80% confluent with trypsin and suspended in DMEM+10% FBS. The suspension was centrifuged at 200x g for 5 min. The suspension was discarded and the pellet was resuspended in the either the 5.5 mM galactose medium (DMEM+10% FBS+5.5 mM of galactose) or the 10 mM propionate medium (DMEM+10% FBS+10 mM sodium propionate). The cells were seeded at 750 cells/well (50 μL) into a 384-well plate containing the test compounds (3-fold serial dilution across 10 plates, starting at 10 uM). For the positive control experiment, the cells were suspended in either the 5.5 mM galactose medium or 10 mM propionate medium+5.5 mM glucose+0.01% DMSO and seeded at 750 cells/well (50 μL) into the blank wells. For the negative control experiment, the cells were suspended in the 5.5 mM galactose or 10 mM propionate medium +0.01% DMSO and seeded at 750 cells/well (50 μL) into the blank wells. The seeded plates were incubated at 37° C. for 96 hours, then 15 μL/well of 16% paraformaldehyde solution was added to the plates and allowed to sit for 15 min to fix the cells. The plates were then washed 3x with 50 μL/well of PBS. The cells were stained with 25 μL/well of a solution of DAPI and left at room temperature for 1 hr. The plates were then washed 3x with 50 μL/well of PBS prior to imaging. Agilent BioTek EL406 Microplate Washer Dispenser was used for the cell fixation and staining protocol. The plates were imaged using GE InCell2200 Cell Analyzer using PerkinElmer Columbus software quantification protocol. The data was analyzed using Genedata, Vortex, and Abase software. A Z-score value of >2 was used for both the Prestwick/Selleck and SPECS library (based on the negative control population) to determine hit selection.

Compound	sinking proportions (ECHS1 knockdown larvae) [%]	respiration [1]	concentration-dependent curves (ECHS1 Fibroblast cells)	ATP production rates [1]	increase in maximal respiration ([1]; glucose-treated cells, 10 μM) [%]	maximal respiration ([1]; glucose-treated cells)
Cc1c(F)cc(C(=O)NC2CC2)cc1-c1ccc(C(=O)NCC(C)(C)C)cn1 [losmapimod, 6-[5-(cyclopropylcarbamoyl)-3-fluoro-2-methylphenyl]-N-(2,2-dimethylpropyl)pyridine-3-carboxamide]	60	did not result in major changes	–	–	–	–
O=c1ncn2nc(Sc3ccc(F)cc3F)ccc2c1-c1c(Cl)cccc1Cl [neflamapimod, 5-(2,6-dichlorophenyl)-2-(2,4-difluorophenyl)sulfanylpyrimido[1,6-b]pyridazin-6-one]	60	–	non-linear response	–	–	–
CC(C)(C)Cn1c(N)nc2ccc(-c3[nH]c(C(C)(C)C)nc3-c3ccc(F)cc3)nc21 [ralimetinib, 5-[2-tert-butyl-4-(4-fluorophenyl)-1H-imidazol-5-yl]-3-(2,2-dimethylpropyl)imidazo[4,5-b]pyridin-2-amine]	60	did not result in major changes	non-linear response	–	–	–
C[C@@H]1CN(Cc2ccc(F)cc2)[C@@H](C)CN1C(=O)c1cc2c(C(=O)C(=O)N(C)C)cn(C)c2cc1Cl [talmapimod, 2-[6-chloro-5-[(2R,5S)-4-[(4-fluorophenyl)methyl]-2,5-dimethylpiperazine-1-carbonyl]-1-methylindol-3-yl]-N,N-dimethyl-2-oxoacetamide]	60	–	non-linear response	no change	11	dose-dependent increase
